Results on six molecules are retold here after publication PMC6303142 (Saudi Journal of Biological Sciences, 2016).

In brackets after ≈: the same amount, converted by molar mass. Read-outs that look alike come from different tables or passages of the source.

One data set concerns sPLA2. The class given is biochemical.
The next data set has as its system Staphylococcus aureus. Description: Broth microdilution MIC/MBC against planktonic cells. It is filed as cell-based. (In general: In broth dilution the organism is exposed to a series of concentrations in liquid medium.)
Data set [1] deals with S. aureus (ATCC 25923 and F7 strains) biofilm. The data set is described as follows: Biofilm formation. The note with it: 1/2 MIC, 24 h, F7 and ATCC 25923 strains, crystal violet. The class given is cell-based, Staphylococcus aureus.
The next data set has as its system S. aureus F7 strain. Description: Electron microscopy. The note with it: DHC at MIC, 24 h, SEM and TEM. It is filed as cell-based, Staphylococcus aureus.
In the next data set the target is T1, soybean LOX-1 (Glycine max, UniProt P08170).
T1 sequence (P08170 1-839): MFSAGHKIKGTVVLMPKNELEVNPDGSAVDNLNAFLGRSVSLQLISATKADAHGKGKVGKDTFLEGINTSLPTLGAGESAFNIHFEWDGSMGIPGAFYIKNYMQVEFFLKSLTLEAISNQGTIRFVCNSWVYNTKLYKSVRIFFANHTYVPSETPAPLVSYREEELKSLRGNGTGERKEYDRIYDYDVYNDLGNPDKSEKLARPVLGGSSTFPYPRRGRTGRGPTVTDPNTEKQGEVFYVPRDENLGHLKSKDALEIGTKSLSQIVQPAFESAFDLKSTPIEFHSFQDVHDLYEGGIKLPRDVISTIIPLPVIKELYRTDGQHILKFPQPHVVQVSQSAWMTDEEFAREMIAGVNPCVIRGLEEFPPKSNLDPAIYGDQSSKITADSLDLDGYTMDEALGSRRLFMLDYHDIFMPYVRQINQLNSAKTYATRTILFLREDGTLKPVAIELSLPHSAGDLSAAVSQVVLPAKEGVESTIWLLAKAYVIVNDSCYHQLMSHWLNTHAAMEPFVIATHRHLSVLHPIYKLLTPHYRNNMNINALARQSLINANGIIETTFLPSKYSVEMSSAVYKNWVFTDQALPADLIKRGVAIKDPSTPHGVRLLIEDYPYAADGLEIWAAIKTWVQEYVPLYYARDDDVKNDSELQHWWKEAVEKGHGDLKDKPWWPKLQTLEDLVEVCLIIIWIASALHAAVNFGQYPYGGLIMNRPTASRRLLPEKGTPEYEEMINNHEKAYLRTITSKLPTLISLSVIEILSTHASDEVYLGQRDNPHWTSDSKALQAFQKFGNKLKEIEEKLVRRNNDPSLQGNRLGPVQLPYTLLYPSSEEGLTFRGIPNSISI
The data set is described as follows: Lipoxygenase. It is filed as biochemical.

The next data set deals with T2, COX-2 (Homo sapiens, UniProt P35354).
T2 sequence (P35354 18-604): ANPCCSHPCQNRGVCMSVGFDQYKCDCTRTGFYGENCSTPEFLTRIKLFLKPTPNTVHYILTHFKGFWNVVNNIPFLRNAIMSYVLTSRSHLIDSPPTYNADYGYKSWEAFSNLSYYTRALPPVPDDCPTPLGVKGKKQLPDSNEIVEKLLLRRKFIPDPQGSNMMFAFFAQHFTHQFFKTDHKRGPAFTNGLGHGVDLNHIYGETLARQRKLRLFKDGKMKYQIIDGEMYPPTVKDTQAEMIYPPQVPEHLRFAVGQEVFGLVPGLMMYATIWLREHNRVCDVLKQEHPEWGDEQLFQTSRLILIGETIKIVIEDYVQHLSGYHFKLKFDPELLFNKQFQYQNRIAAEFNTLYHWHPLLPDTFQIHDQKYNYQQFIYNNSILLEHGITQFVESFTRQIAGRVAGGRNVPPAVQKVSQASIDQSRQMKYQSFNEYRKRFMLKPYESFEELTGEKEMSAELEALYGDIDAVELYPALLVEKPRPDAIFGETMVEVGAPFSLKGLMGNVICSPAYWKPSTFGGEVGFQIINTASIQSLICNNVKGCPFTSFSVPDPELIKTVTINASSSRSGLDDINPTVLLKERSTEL
The data set is described as follows: Cyclooxygenase. It is filed as biochemical.

In data set [2] the test system is human hepatoma HepG2 cells. Conditions: ref Zampini et al. (2008); cited from earlier work.
The next data set has as its system Artemia salina. Description: General.
The mark [3] stands for this setting: ATCC29213, S. aureus ATCC 29213, control strain.
Setting [4] is: S. aureus clinical isolate 5 (F5), Met^r Oxa^r.
The mark [5] stands for this setting: S. aureus clinical isolate 7 (F7), Met^r Oxa^r Gen^r.
Where [6] appears, read: S. aureus clinical isolate 8 (F8), Met^r Oxa^r.
The mark [7] stands for this setting: S. aureus clinical isolate 23 (F23), Met^r Oxa^r.
[8] abbreviates: S. aureus clinical isolate 31 (F31), Met^r Oxa^r Van^s.

On to `COc1ccc2cc([C@H](C)C(=O)O)ccc2c1` [Naproxen, reference compound], for which the “Inhibition (%) sPLA2” value with sPLA2 was 6.00 ± 0.40%.

For the molecule `O=C1CC(c2ccccc2)Oc2cc(O)ccc21` (stereo not drawn) [HF, 7-hydroxyflavanone], the MBC in the data set with Staphylococcus aureus (setting [3]) is above 500 µg/mL; in the data set with Staphylococcus aureus (setting [4]), above 500 µg/mL; with Staphylococcus aureus (setting [5]) it was 200 µg/mL (≈ 832 µM); with Staphylococcus aureus (setting [6]), above 500 µg/mL; in the data set with Staphylococcus aureus (setting [7]) it was above 500 µg/mL; against Staphylococcus aureus (setting [8]), above 500 µg/mL.

As to `O=C(/C=C/c1ccccc1)c1ccc(O)cc1O` [DHC, 2′,4′-dihydroxychalcone], the MBC in the data set on Staphylococcus aureus (setting [3]) stood at 50 µg/mL (≈ 208 µM); in the data set on Staphylococcus aureus (setting [4]), 100 µg/mL (≈ 416 µM); against Staphylococcus aureus (setting [5]) it was 100 µg/mL (≈ 416 µM); in the data set with Staphylococcus aureus (setting [6]) it was 100 µg/mL (≈ 416 µM); in the data set with Staphylococcus aureus (setting [7]), 200 µg/mL (≈ 832 µM); against Staphylococcus aureus (setting [8]), 200 µg/mL (≈ 832 µM). Besides, the MIC against Staphylococcus aureus (setting [3]) stood at 50 µg/mL (≈ 208 µM); in the data set with Staphylococcus aureus (setting [4]) it was 25 µg/mL (≈ 104 µM); against Staphylococcus aureus (setting [5]) it was 25 µg/mL (≈ 104 µM); in the data set on Staphylococcus aureus (setting [6]) it was 25 µg/mL (≈ 104 µM); in the data set on Staphylococcus aureus (setting [7]) it was 25 µg/mL (≈ 104 µM); against Staphylococcus aureus (setting [8]) it was 100 µg/mL (≈ 416 µM). In data set [1], the biofilm formation inhibition result is listed as “most active pure compound”. In addition, the “morphological changes in the cell appearance” value in the data set on S. aureus F7 strain is “visible cellular aggregation, blebs on the cellular surface and cytoplasmic coagulation”. Besides, the “Inhibition (%) sPLA2” value in the data set with sPLA2 (10 μg/mL) came to 60.50 ± 2.90%. Besides, the values for the IC50 against soybean LOX-1 and on COX-2 were 414 µM and 7.16 µM, respectively. Moreover, in data set [2], the genotoxicity result is “did not find genotoxicity”.

Take `COc1c(O)ccc(C(=O)/C=C/c2ccccc2)c1O` [DHMC, 2′,4′-dihydroxy-3′-methoxychalcone]: the MBC in the data set with Staphylococcus aureus (setting [3]), in the data set on Staphylococcus aureus (setting [4]), with Staphylococcus aureus (setting [5]), in the data set with Staphylococcus aureus (setting [6]), against Staphylococcus aureus (setting [7]) and in the data set with Staphylococcus aureus (setting [8]) was 200 µg/mL (≈ 740 µM) throughout. In addition, the MIC was 200 µg/mL (≈ 740 µM) against Staphylococcus aureus (setting [3]); 200 µg/mL (≈ 740 µM) against Staphylococcus aureus (setting [4]); 200 µg/mL (≈ 740 µM) in the data set with Staphylococcus aureus (setting [5]); 200 µg/mL (≈ 740 µM) in the data set with Staphylococcus aureus (setting [6]); 100 µg/mL (≈ 370 µM) with Staphylococcus aureus (setting [7]); 200 µg/mL (≈ 740 µM) in the data set on Staphylococcus aureus (setting [8]). For the same molecule, the “Inhibition (%) sPLA2” value in the data set with sPLA2 (10 μg/mL) is listed as 38.18 ± 1.80%. This molecule also showed an IC50 against soybean LOX-1 of 235 µM. The “activity against COX-2” value on COX-2 (tested concentrations 10–150 μg/mL) is on record as “not active”.

As to `[Na+].[Na+].[O]=[Cr](=[O])([O-])[O][Cr](=[O])(=[O])[O-]` [sodium dichromate], the “LC50 (concentration that kills 50% of the A. salina larvae)” value in the data set on Artemia salina is 30 µg/mL.

For `O=c1c(O)c(-c2ccccc2)oc2cc(O)ccc12` [DHF, 3,7-dihydroxyflavone], the MBC was above 500 µg/mL against Staphylococcus aureus (setting [3]); above 500 µg/mL in the data set on Staphylococcus aureus (setting [4]); above 500 µg/mL against Staphylococcus aureus (setting [5]); 400 µg/mL (≈ 1570 µM) against Staphylococcus aureus (setting [6]); above 500 µg/mL against Staphylococcus aureus (setting [7]); above 500 µg/mL in the data set with Staphylococcus aureus (setting [8]). Moreover, the MIC in the data set with Staphylococcus aureus (setting [3]) is 400 µg/mL (≈ 1570 µM); against Staphylococcus aureus (setting [4]), 200 µg/mL (≈ 787 µM); in the data set with Staphylococcus aureus (setting [5]) it was 200 µg/mL (≈ 787 µM); against Staphylococcus aureus (setting [6]) it was 25 µg/mL (≈ 98.3 µM); in the data set on Staphylococcus aureus (setting [7]), 200 µg/mL (≈ 787 µM); in the data set on Staphylococcus aureus (setting [8]), 200 µg/mL (≈ 787 µM). For the same molecule, the “Inhibition (%) sPLA2” value in the data set with sPLA2 (10 μg/mL) is given as 2.70 ± 0.20%. Moreover, in the data set on sPLA2 (at the concentration assayed (10 μg/mL)), the “activity on sPLA2” value is “not active”. The values for the IC50 on soybean LOX-1 and at COX-2 were 227 µM and 100 µM, respectively.

The MBC is the lowest tested concentration that kills the bacteria rather than only halting them. Read a high MBC as less potent killing. For orientation: MIC means the smallest concentration in the dilution series that meets the test's criterion for growth inhibition. Low values mean inhibition by little substance, high ones a need for much substance. The term IC50 denotes the concentration that gives 50% inhibition. Low values mean higher potency, high ones lower potency.
